# Source: patent US10519423B1, “High efficiency reprogramming of fibroblasts into cardiomyocytes” (The Regents of the University of Colorado, a body corporate, priority 2015, dated 2019)
# What was measured:
# Format in all cases: cell-based, mouse
# MEFs [1] = assay: Pro-fibrotic marker expression in infected MEFs (qPCR, Western blot, αSMA stress fiber immunostaining); conditions: A83-01 0.5 μM, day 7
# Procedure: (§1) Cells were harvested in TRizol reagent (Ambion) for RNA isolation. RNA was extracted with the RNeasy® Plus Universal Mini Kit (Qiagen). RT-PCR was performed using the Superscript III first-strand synthesis system (Invitrogen). qPCR was performed using the SYBR® Green PCR master mix (Applied Biosystems) or StepOne™ Real-Time PCR Systems (Applied Biosystems). Primers are listed in Supplementary Table 1. Ryr2 (Mm00465877_m1) and Myh7 (Mm01319006_91) are Taqman probes (Life technologies).
# Samples were placed on ice and washed with ice-cold DPBS (Gibco) twice, then ice-cold lysis buffer (150 mM NaCl, 50 mM Tris-Cl pH7.4, 1 mM EDTA, 1% Triton, Complete mini tablet (Roche), 1 mM PMSF freshly added before use) was added to the cells. Cells were scraped and transferred to a pre-chilled 1.5 Eppendorf tube and frozen in liquid N2. Before used, the lysate was thawed on ice. The lysate was passed carefully through a 25 g needle for 5 times and then centrifuge at 14,000 rpm for 15 minutes at 4° C. The supernatant was transferred to a new 1.5 ml tube. The protein concentration was measured and 20 ug of lysate for each sample was loaded to SDSPAGE. Proteins were then transferred to PVDF. The PDVF membrane was blocked in 2.5% BSA in 1×TBST for 30 mins at room temperature (RT). The primary antibody was added in blocking buffer for 60 mins at RT. Wash in 1×TBST (20 mM Tris-Cl, pH7.4; 150 mM NaCl; 0.1% Tween20) three times at RT, each for 15 mins. The Secondary antibody was added in blocking buffer for 45 mins at RT. The membrane was washed in 1 XTBST for 15 mins, 1×TBST for 5 mins, then TBS (10 mM Tris-Cl pH8, 150 mM NaCl) for 5 mins. The membrane was resolved with Super Signal® West Pico (34080) or Femto (34095) substrate (Thermo Scientfic). The primary antibodies include: Snail (Cell Signaling, 3879S, 1:1000), Slug (Cell Signaling, 9585S, 1:1000), P-Smad2 (Cell Signaling, 23108P, 1:1000), Smad2 (Cell Signaling, 5339, 1:1000), αSMA (Santa Cruz, SC-32251, 1:10000), cTn1 (Phospho Solutions, 2010-TNI, 1:1000), cTnT (Sigma, T6277, 1:1000), and GAPDH (Ambion, AM4300). The secondary antibodies include: Goat Anti-Mouse IgG (H+L) (Southern Biotech, 1031-05, 1:2000). Goat Anti-Rabbit IgG (Life Technologies, 65-6120, 1:2000). For separation of α- and β-myosin heavy chain, samples were run by modified 6% SDS-PAGE (separating acrylamide/bis ratio 1:100; resolving gel buffer pH 9.0; running gel buffer pH 8.2; β-mercaptoethanol 600 μl/l inner gel buffer). Gels were run overnight at 4° C. and stained with BioSafe Coomassie Blue protein stain.
# Cells were fixed in 2% PFA for 15 min on ice then washed with DPBS (Gibco) three times at RT. The cells were permeabilized in 0.5% Triton X-100 (made in PBS) for 20 min at RT. After washing the cells with DPBS (Gibco), cells were incubated with the primary antibody against α-actinin (Sigma A7811, 1:300), Connexin 43 (Sigma, C6219, 1:500), Troponin T (Thermo Scientific MS-245-P, 1:500), α-SMA (Santa Cruz Biotechnology, SC-32251, 1:800), Myl2 (Proteintech, 10906-1-AP, 1:200), or Myl7 (Proteintech, 17283-1-AP, 1:200) in 10% FBS(Gemini) in DPBS for 1 hour at RT. Cells were wash with DPBS three times, 5 min each. Cell were incubated with the secondary antibody (Alexa Fluor 555 Molecular Probes A21422, 1:1000) and Hoechest (Molecular Probes 33342, 1:5000) for 30 mins at RT.
# MEFs [2] = assay: Counting of spontaneously beating cells in infected MEFs
# Procedure: (§2) Fibroblasts were plated on tissue culture dishes pre-coated with SureCoat (Cellutron) at a density of ˜40 cells/mm^2 before transduction. The fibroblast growth medium was replaced with freshly made viral mixture containing polybrene (Sigma). Twenty-four hours later, fibroblasts were infected again with viral mixture containing polybrene. Twenty fours later, the viral medium was replaced with induction medium, composed of DMEM/199 (4:1) (Gibco), 10% FBS (Gemini), 5% horse serum(Gemini), antibiotics (Gibco), 1× non-essential amino acids (Gibco), 1× essential amino acids (Gibco), 1× B-27 (Gibco), 1× insulin-selenium-transferin (Gibco), 1× vitamin mixture (Gibco), and 1× sodium pyruvate (Gibco). Medium was changed every two-three days until cells were examined.
# (§3) Cells in 60 mm dishes were examined under an EVOS® FL Color imaging system (Life Technologies) at 25° C. Beating cells were counted at a field with an area of 0.89 mm^2. Ten to fifteen fields in each dish were randomly chosen.
# [3] = system: adult cardiac fibroblasts (ACFs); assay: qPCR of cardiac genes in adult cardiac fibroblasts; conditions: infected ACFs treated with A83-01 for 4 weeks
# Procedure: (§4) Hearts or skinned tails from adult C57BL6 mice were cut into small pieces with ˜1 mm diameter. The biopsies were seeded on a 10 cm culture dish and incubated with 10 mL of growth medium (DMEM/Hi glucose (Hyclone), 10% FBS (Gemini:), 1.1% Penicillin-Streptomycin (Gibco) and 1.1% GlutaMAX supplement (Gibco)) at 37° C. with 5% CO2. TTFs migrated out of the biopsies after 3 days. The media were changed every other day. Once the TTFs have reached a 70-80% confluence, the cells were harvested and stored for future use.
# as §1
# [4] = system: adult tail-tip fibroblasts (ATTFs); assay: Counting of spontaneously beating cells in adult tail-tip fibroblasts; conditions: GHMT2m-ATTFs treated with A83-01 (0.5 μM)
# Procedure: as §4, §2, §3
compound,measurement,setting,value
Cc1cccc(-c2nn(C(=S)Nc3ccccc3)cc2-c2ccnc3ccccc23)n1 [A83-01],"expression of Fn-EDA, Col1a1 and Col3a1, and formation of αSMA+ stress fibers",MEFs [1]; GHMT- and GHMT2m-infected cultures,inhibited
same,phosphorylation of Smad2,MEFs [1]; MEFs,decreased
same,increase of the number of beating cells,"MEFs [2]; GHMT2m-infected MEFs treated with A83-01, by day 8",8 fold
same,spontaneously contracting cells per cm^2,"MEFs [2]; GHMT-infected MEFs treated with A83-01 (0.5 μM), by 4 weeks",about 4400 cells per cm^2
same,time by which cells started to beat,"MEFs [2]; MEFs, GHMT2m alone, or GHMT-infected cultures treated with Y-27632 (30 μM) or A83-01 (0.5 μM)",≤ 11 days
same,"expression of other cardiac genes, Actc1, Myh6 and Ryr2",[3],enhanced
same,time by which spontaneously beating cells appeared,[4],2-3 weeks
same,spontaneously contracting cells,[4]; by 4 weeks,about 4%
same,spontaneously contracting cells per cm^2,[4]; by 4 weeks,approximately 300 cells per cm^2
